Source: patent US20230147942A1, “PHARMACEUTICAL COMPOSITION COMPRISING NEW LACTOBACILLUS PLANTARUM KC3 STRAIN AND LEONURUS JAPONICUS EXTRACT AS ACTIVE INGREDIENTS FOR PREVENTING OR TREATING RESPIRATORY DISEASE AND USE THEREOF” (KT&G CORPORATION, priority 2020, published 2023)

Columns and labels:
[1] = tested on: total number of cells in BAL fluid; test: Total number of cells in BAL fluid, mouse model having respiratory damage caused by air pollutants; assay type: in vivo
Protocol: (§1) BALB/c male mice (7-week-old, 20 g to 25 g, Orient Bio) were divided into groups of 6 mice, and as assigned to 6 mice in each group, and Alum was diluted in components of air pollutants, i.e., 10 mg/ml of coal combustible materials, 10 mg/ml of fly ash, and 5 mg/ml of diesel exhaust particle (DEP) to have a final concentration of 1% so that a final concentration of each component was 1.5 mg/ml for coal combustible material/fly ash and 5 mg/ml for DEP in a mixture. Then, to all groups except for a normal group, the mixture was directly injected into the airway and nose of the experimental animals by 50 pl each on the 4th, 7th and 10th says of the experiment.
(§2) For a positive control group treated with dexamethasone (Sigma D2915), administed at 3 mg/kg BW of the mouse model, the Lactobacillus plantarum KC3 strain (KC3) was diluted at a concentration of 1×10^9CFU/cell (about 2 mg/kg BW), the Leonurus japonicus extract was diluted in distilled water at a dose of 100 mg/kg of BW, and then orally administered at a dose of 300 pl every day (for 11 days). […]

neutrophils = test: Ratio of number of neutrophils to total number of cells in BAL fluid (Diff-Qick staining); assay type: in vivo, mouse
Protocol: as §1, §2

CXCL-1 = test: Expression level of inflammation factor in BAL fluid (ELISA); assay type: in vivo, mouse
Protocol: as §1
(§3) For a positive control group treated with dexamethasone (Sigma D2915), administed at 3 mg/kg BW of the mouse model, the Lactobacillus plantarum KC3 strain (KC3) was diluted at a concentration of 1×10^9CFU/cell (about 2 mg/kg BW), the Leonurus japonicus extract was diluted in distilled water at a dose of 100 mg/kg of BW, and then orally administered at a dose of 300 pl every day (for 11 days). For a mixed group including the KC3 strain and the Leonurus japonicus extract, the solution was mixed and diluted at a ratio of 1:1 by the dry weight as in Examples above, and then orally administered at a dose of 300 pl every day (for 11 days) (the cell amount in the KC3 included in the mixture was 0.5×10^9 CFU/cell, and the dose of the Leonurus japonicus extract was set at 50 mg/kg BW). The oral administration was performed at a dose of 300 μl per mouse, and an autopsy was performed on the 12th day after the start of the experiment to recover the BAL solution.
(§4) An experiment was carried out to confirm whether the expression level of inflammation factors in the BAL fluid can be lowered, when treated with the Lactobacillus plantarum KC3 strain, the Leonurus japonicus extract, or the mixture thereof.
(§5) The experiment was carried out in the same manner as in Experimental Example 1-3, except that the number of cells in BAL fluid was measured. Instead of measuring the number of cells, ELISA was performed to measure the expression level of respiratory inflammation factors, such as IL-17A, TNF-α, and CXCL-1, expressed in BAL fluid. In detail, IL-17A antibodies (M1700, R&D Systems, Minneapolis, USA), TNF-α antibodies (MTA00B, R&D Systems, Minneapolis, USA), and CXCL-1 antibodies (MKCOOB, R&D Systems, Minneapolis, USA) were diluted with a buffer solution, coated microwells, and then cultured at 4° C. for 16 hours. Each well was washed with a buffer solution three times, and 10-fold diluted serum was dispensed at 100 μl per well. After being left at room temperature for 1 hour, the wells were washed twice. Then, 100 μl of Avidin-HRP-conjugated antibodies (DY007, R&D Systems, Minneapolis, USA) was treated thereon, and the wells were left again at room temperature for 1 hour, followed by washing again.
(§6) Tetramethylbenzidine (TMB) base solution (DY007, R&D Systems, Minneapolis, USA) was dispensed at 100 μl per well, and the well plate was left in the dark for 30 minutes. After 50 μl of a stopping solution (DY007, R&D Systems, Minneapolis, USA) was treated thereon, absorbance of the cells was measured at 450 nm.

IL-17A = test: as above; assay type: in vivo, mouse
Protocol: as §1, §3, §4, §5, §6

TNF-α = test: as above; assay type: in vivo, mouse
Protocol: as §1, §3, §4, §5, §6

[2] = tested on: symmetric dimethylarginine (SDMA); test: Measurement of SDMA as COPD biomarker in blood (ELISA); assay type: in vivo, mouse
Protocol: as §1, §2
After being left at room temperature for 1 hour, the wells were washed twice. […] After 50 μl of a stopping solution (DY007, R&D Systems, Minneapolis, USA) was treated thereon, absorbance of the cells was measured at 450 nm. […]

[3] = BALB/c mice, air pollutant-induced, oral daily 11 days, BAL day 12, dexamethasone 3 mg/kg, KC3 1×10^9 CFU, Leo 100 mg/kg, mixture 0.5×10^9 CFU + 50 mg/kg
[4] = BALB/c mice, air pollutant-induced, oral daily 11 days, dexamethasone 3 mg/kg, KC3 1×10^9 CFU, Leo 100 mg/kg, mixture 0.5×10^9 CFU + 50 mg/kg

`C[C@@H]1C[C@H]2[C@@H]3CCC4=CC(=O)C=C[C@]4(C)[C@@]3(F)[C@@H](O)C[C@]2(C)[C@@]1(O)C(=O)CO` [Positive control group, dexamethasone] was tested, and the “Total number of BAL cells (×10^4 cells/ml)” value [1, 3] was 71.2 ± 8.3 ×10^4 cells/ml, the “Inhibition rate (based on induced group), total BAL cells” value ([1]; same dosing as total BAL cells, based on induced group) was 54% and the “Ratio of number of neutrophils to total number of BAL cells (400X)” value (neutrophils; [3]) was 35.5 ± 6.1. The “Inhibition rate (based on induced group), neutrophil ratio” value (neutrophils; same dosing, based on induced group) was 50%, the “CXCL-1 Concentration” value (CXCL-1; [4]) was 122 ± 12.4 pg/mL and the “CXCL-1 inhibition rate (%) based on induced group” value (CXCL-1; same dosing) was “(39%)”. For the same molecule, the “IL-17A Concentration” value (IL-17A; [4]) was 19.7 ± 6.3 pg/mL, the “IL-17A inhibition rate (%) based on induced group” value (IL-17A; same dosing) was “(41%)” and the “TNF-α Concentration” value (TNF-α; [4]) was 64.5 ± 7.7 pg/mL. For the same molecule, the “TNF-α inhibition rate (%) based on induced group” value (TNF-α; same dosing) was “(46%)”, the “SDMA level (μg/mL) in serum” value [2, 4] was 10.1 ± 1.9 µg/mL and the “Inhibition rate (based on induced group), SDMA” value ([2]; serum, same dosing) was 41%.
